From patent US20240043415A1, “KCNT1 INHIBITORS AND METHODS OF USE” (Praxis Precision Medicines, Inc., priority 2020, published 2024)

Target: T1, KCNT1 (KNa1.1, Slack) (Homo sapiens, UniProt Q5JUK3)
T1 construct: expressed in transfected cells; host or cells: HEK-TREX (tetracycline-inducible)
T1 sequence (Q5JUK3 1-1230): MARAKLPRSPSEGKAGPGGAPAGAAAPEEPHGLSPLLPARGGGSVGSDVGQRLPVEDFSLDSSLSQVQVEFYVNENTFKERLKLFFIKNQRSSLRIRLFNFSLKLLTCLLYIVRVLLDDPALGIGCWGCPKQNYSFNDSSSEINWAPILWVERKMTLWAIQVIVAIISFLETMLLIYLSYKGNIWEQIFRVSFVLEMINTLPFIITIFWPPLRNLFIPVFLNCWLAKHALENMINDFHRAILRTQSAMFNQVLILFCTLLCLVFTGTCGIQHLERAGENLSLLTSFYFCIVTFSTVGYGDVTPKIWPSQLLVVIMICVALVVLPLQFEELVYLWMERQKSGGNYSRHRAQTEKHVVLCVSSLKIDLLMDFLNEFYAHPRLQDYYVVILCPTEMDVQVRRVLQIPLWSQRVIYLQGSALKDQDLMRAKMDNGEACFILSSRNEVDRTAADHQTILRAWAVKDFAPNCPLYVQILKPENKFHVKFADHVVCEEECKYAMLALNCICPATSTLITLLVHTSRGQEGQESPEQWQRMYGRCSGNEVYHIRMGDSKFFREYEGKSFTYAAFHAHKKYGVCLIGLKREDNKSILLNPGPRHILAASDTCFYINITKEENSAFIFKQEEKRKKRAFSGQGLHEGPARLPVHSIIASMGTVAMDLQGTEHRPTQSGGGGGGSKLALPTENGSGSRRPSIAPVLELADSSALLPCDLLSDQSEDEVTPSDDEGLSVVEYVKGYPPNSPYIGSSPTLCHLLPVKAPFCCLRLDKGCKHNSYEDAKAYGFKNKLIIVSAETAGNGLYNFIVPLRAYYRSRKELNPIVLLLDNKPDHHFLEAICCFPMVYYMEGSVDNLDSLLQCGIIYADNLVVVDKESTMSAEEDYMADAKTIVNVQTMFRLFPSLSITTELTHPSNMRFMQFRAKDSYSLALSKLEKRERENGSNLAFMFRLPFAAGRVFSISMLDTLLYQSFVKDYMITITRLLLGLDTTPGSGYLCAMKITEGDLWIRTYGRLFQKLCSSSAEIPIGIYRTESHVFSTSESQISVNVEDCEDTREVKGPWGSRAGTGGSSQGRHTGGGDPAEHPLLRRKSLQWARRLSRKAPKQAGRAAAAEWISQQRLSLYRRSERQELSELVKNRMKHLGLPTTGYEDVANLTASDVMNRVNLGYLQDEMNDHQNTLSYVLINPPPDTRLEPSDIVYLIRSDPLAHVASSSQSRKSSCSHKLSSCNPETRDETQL
Experiment: KCNT1 patch clamp assay (SyncroPatch 384PE, HEK-TREX cell line)
Format: cell-based
Details: tetracycline inducible HEK-TREX cell line, perforated patch, step to 0 mV, room temperature; read-out: KCNT1-WT IC50
Procedure: Currents were recorded using the SyncroPatch 384PE automated, patch clamp system. Pulse generation and data collection were performed with PatchController384 V1.3.0 and DataController384 V1.2.1 (Nanion Technologies). The access resistance and apparent membrane capacitance were estimated using built-in protocols. Current were recorded in perforated patch mode (10 μM escin) from a population of cells. The cells were lifted, triturated, and resuspended at 800,000 cells/ml. The cells were allowed to recover in the cell hotel prior to experimentation. Currents were recorded at room temperature. […] The extracellular solution was used as the wash, reference and compound delivery solution. […] Escin is made at a 5 mM stock in water, aliquoted, and stored at −20° C. The compound plate was created at 2× concentrated in the extracellular solution. The compound was diluted to 1:2 when added to the recording well. The amount of DMSO in the extracellular solution was held constant at the level used for the highest tested concentration. A holding potential of −80 mV with a 100 ms step to 0 mV was used. […] The average mean current from 3 sweeps was calculated and the % inhibition of each compound was calculated. The % Inhibition as a function of the compound concentration was fit with a Hill equation to derive IC50, slope, min and max parameters.

- IC50: ≤ 1 µM
Structure (SMILES): C[C@H](NC(=O)c1cc(C(F)(F)F)nn1C)c1noc(-c2ccnc(C3CC3)c2)n1 [Compound 2a, (S)-N-(1-(5-(2-cyclopropylpyridin-4-yl)-1,2,4-oxadiazol-3-yl)ethyl)-1-methyl-3-(trifluoromethyl)-1H-pyrazole-5-carboxamide]
